Consider four substances from US11952433B2, “Heterochiral peptide-complex and composition for measuring nuclear magnetic resonance spectroscopy residual dipolar coupling containing self-assembled intermediates of heterochiral peptide-complex” (INDUSTRY-ACADEMIC COOPERATION FOUNDATION, YONSEI UNIVERSITY, priority 2020, dated 2024).

A short description of data set [1]: Wide-angle X-ray scattering (WAXS) of the colloidal crystal solution. Conditions: for WAXS d-spacing, intersheet distance / WAXS reflection d (second reflection) / WAXS reflection d, interstrand distance of β-sheets: 3.0 mg/mL, room temperature. The data set is classed as physicochemical. The protocol: Wide-angle X-ray scattering analysis was performed using the 4C SAXS II beamline (BL) of the Pohang Accelerator Laboratory (PAL, Korea). In-vacuum undulator 20 of the Pohang Light Source II storage ring was used as a beam source, and a vertical toroidal focusing mirror was used to deliver an X-ray beam of 0.675 Å. 100 μL of the sample solution was mounted in a quartz microcapillary with a thickness of 10 μm and a length of 80 mm. The sample was irradiated for 5 seconds of exposure time at room temperature. The concentrations of the samples of Comparative Examples 1-2 and Example 1 (T-W6, T-w6 and T-(wW)3) were all 3.0 mg/mL. The X-ray scattering patterns were collected by using a charge-coupled detector (Mar USA, Inc.) positioned 20 cm apart from the sample (0.25 Å^−1<q<2.00 Å^−1).
The data were captured in six continuous frames of 0.1 minute each to minimize the damage from irradiation. Each 2D scattering pattern was averaged circularly from the beam focus and normalized to the intensity of the transmitted X-ray beam. The transmitted beam intensity was monitored with a scintillation counter. The scattering pattern of water was used as the experimental background.
However, the detailed molecular arrangement of the peptide in each crystal might be different. To address this question, wide-angle X-ray scattering (WAXS) analysis of the colloidal crystal solution was performed.

Data set [2] can be described thus: Time course of self-assembly in solution by CD and AFM. The data set is classed as physicochemical. Conditions: in water; for self-assembly kinetics (in words): CD and AFM with time. The procedure: The CD spectra of the peptide complexes in aqueous solution were acquired using a Chirascan™ CD spectrometer. All the peptide complexes were adjusted to 20 μM with DI water and then incubated at room temperature for 2 hours. The CD spectra were recorded using a 2-mm path-length cuvette from 250 nm to 190 nm at 25° C. Each spectrum was collected by averaging three scans and corrected for the distilled water background spectrum.
The peptide complex samples were diluted to 20 μM and 10 μL was dropped onto a freshly cleaved mica plate. After 1 minute of incubation, the mica plate was washed with 100 μL of doubly distilled water and then the residual solution was gently removed using filter paper. After completely drying at room temperature, AFM measurement was made. The AFM scans were conducted at noncontact mode (NCM) with a Park NX10 instrument (Park Systems, Korea). The scanning was performed at a scan rate of 0.3 Hz and a Z-gain of 1.
All the peptide samples were diluted to 1 mM and divided into 1-mL aliquots. The aliquots were heated at 95° C. for 1 hour and slowly annealed in a water bath overnight. After the annealing process, the samples were incubated at room temperature and the self-assembly process with time was analyzed by CD, AFM, WAXS, NMR, etc.

Turning to “(D)Trp-(L)Trp-(D)Trp-(L)Tre-(D)Trp-(L)Trp [Example 1]”, in data set [1], the “distance between the β strands” value was 4.56-4.92 Å; the “WAXS d-spacing, intersheet distance” value is on record as 17.0 Å; the “WAXS reflection d (second reflection)” value was determined as 5.6 Å; the “WAXS reflection d, interstrand distance of β-sheets” value (“WAXS reflection d … of β-sheets” for short) was determined as 4.7 Å. In addition, the “self-assembly kinetics (in words)” value in data set [2] is recorded as “markedly slower self-assembly kinetics”. Besides, in data set [2] (room temperature after annealing), the “time after which the increase in CD signals had almost ceased (self-assembly equilibrium)” value is recorded as 2 weeks.
“PEGylated (D)Trp-(D)Trp-(D)Trp-(D)Trp-(D)Trp-(D)Trp [Comparative Example 2]”: in data set [1], the “WAXS d-spacing, intersheet distance” value was 17.5 Å; the “WAXS reflection d (second reflection)” value was found to be 5.8 Å; the “WAXS reflection d … of β-sheets” value was 4.7 Å.
“PEGylated (L)Trp-(D)Trp-(L)Trp-(D)Trp-(L)Trp-(D)Trp [Example 2]”: the “self-assembly kinetics (in words)” value in data set [2] is reported as “same slow assembly kinetics”.
For “PEGylated (L)Trp-(L)Trp-(L)Trp-(L)Trp-(L)Trp-(L)Trp [Comparative Example 1]”, in data set [1], the “WAXS d-spacing, intersheet distance” value is reported as 17.5 Å; the “WAXS reflection d (second reflection)” value came to 5.8 Å; the “WAXS reflection d … of β-sheets” value is recorded as 4.7 Å.
